According to patent US20250034136A1 (Nimbus Wadjet, Inc., priority 2023, published 2025):

Assays:
[1] = biological target: WRN (BV08), human Werner helicase (Uniprot Q14191, amino acids 517-1235 with L1074F point mutation) (Homo sapiens (Human), UniProt Q14191, L1074F); test: WRN (BV08) ADP-Glo assay; format: biochemical; settings: class symbols A-E, read-out: ADP-Glo_hWRN_IC50
[2] = test system: p21 induction in HCT116 cells; test: p21 induction in HCT116 cells; format: cell-based; settings: Homo sapiens, HCT-116, 24 h, HCT116 cells, 24 h compound incubation; read-out: P21_EC50
Procedure, shortened: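 HCT116 cells, 2,000/well, treated 24 h at 37 °C with 11-point compound dilutions in duplicate. Fixed, then immunostained for p21 and GAPDH and read by near-IR imaging at 800/700 nm. Normalized to DMSO (low) and reference WRN inhibitor (high) controls; EC50 from non-linear regression.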

Chain of WRN (BV08), human Werner helicase (Uniprot Q14191, amino acids 517-1235 with L1074F point mutation) (Q14191 other isoform, or with tags, fused parts or gaps L1074F (already in the parent)): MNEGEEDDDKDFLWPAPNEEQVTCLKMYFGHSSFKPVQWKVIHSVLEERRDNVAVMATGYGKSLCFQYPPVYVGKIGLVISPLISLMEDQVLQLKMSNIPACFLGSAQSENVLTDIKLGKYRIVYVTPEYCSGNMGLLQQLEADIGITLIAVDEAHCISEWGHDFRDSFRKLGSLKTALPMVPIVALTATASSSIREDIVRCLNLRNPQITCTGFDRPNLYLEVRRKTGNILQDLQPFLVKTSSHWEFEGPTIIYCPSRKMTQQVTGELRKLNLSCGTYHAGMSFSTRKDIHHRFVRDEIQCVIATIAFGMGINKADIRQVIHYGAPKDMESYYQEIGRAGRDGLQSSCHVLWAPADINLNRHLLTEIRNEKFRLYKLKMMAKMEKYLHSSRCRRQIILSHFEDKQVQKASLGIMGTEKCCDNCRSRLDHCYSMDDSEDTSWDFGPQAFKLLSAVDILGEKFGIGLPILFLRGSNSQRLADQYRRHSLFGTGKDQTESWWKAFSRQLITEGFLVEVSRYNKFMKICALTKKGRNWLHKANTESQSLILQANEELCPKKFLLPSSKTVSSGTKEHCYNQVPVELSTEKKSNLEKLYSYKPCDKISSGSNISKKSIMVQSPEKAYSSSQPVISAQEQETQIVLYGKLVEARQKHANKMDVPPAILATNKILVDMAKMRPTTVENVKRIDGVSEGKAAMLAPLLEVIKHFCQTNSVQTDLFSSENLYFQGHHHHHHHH

Row | SMILES | IC50 [1] [µM] | EC50 [2] [µM]
1 | CCc1c(N2CCN(C(=O)c3ncnc(C)c3O)[C@H]3CC[C@@H]32)c(=O)c2nc(N(C)[C@H]3CC[C@H](O)C3)cnc2n1CC(=O)Nc1ccc(C(F)(F)F)cc1Cl [I-299, N-[2-chloro-4-(trifluoromethyl)phenyl]-2-{6-ethyl-7-[(1S,6S)-5-(5-hydroxy-6-methylpyrimidine-4-carbonyl)-2,5-diazabicyclo[4.2.0]octan-2-yl]-2-{[(1S,3S)-3-hydroxycyclopentyl](methyl)amino}-8-oxo-5H,8H-pyrido[2,3-b]pyrazin-5-yl}acetamide] | 0.005 to 0.05 | < 0.5
2 | CCc1c(N2CCN(C(=O)c3ncnc(C)c3O)[C@H]3CC[C@@H]32)c(=O)c2nc(N(C)[C@@H]3CC[C@H](O)C3)cnc2n1CC(=O)Nc1ccc(C(F)(F)F)cc1Cl [I-300, N-[2-chloro-4-(trifluoromethyl)phenyl]-2-{6-ethyl-7-[(1S,6S)-5-(5-hydroxy-6-methylpyrimidine-4-carbonyl)-2,5-diazabicyclo[4.2.0]octan-2-yl]-2-{[(1R,3S)-3-hydroxycyclopentyl](methyl)amino}-8-oxo-5H,8H-pyrido[2,3-b]pyrazin-5-yl}acetamide] | 0.005 to 0.05 | < 0.5
3 | CCc1c(N2CCN(C(=O)c3ncnc(C)c3O)[C@H]3CC[C@@H]32)c(=O)c2nc(N(C)[C@@H]3CC[C@@H](O)C3)cnc2n1CC(=O)Nc1ccc(C(F)(F)F)cc1Cl [I-301, N-[2-chloro-4-(trifluoromethyl)phenyl]-2-{6-ethyl-7-[(1S,6S)-5-(5-hydroxy-6-methylpyrimidine-4-carbonyl)-2,5-diazabicyclo[4.2.0]octan-2-yl]-2-{[(1R,3R)-3-hydroxycyclopentyl](methyl)amino}-8-oxo-5H,8H-pyrido[2,3-b]pyrazin-5-yl}acetamide] | 0.005 to 0.05 | < 0.5

Other lines, results leading:

Row | IC50 [1] [µM] | EC50 [2] [µM] | SMILES
4 | 0.005 to 0.05 | < 0.5 | CCc1c(N2CCN(C(=O)c3ncnc(C)c3O)[C@H]3CC[C@@H]32)c(=O)c2nc(N(C)C3CCC3O)cnc2n1CC(=O)Nc1ccc(C(F)(F)F)cc1Cl (stereo partly drawn) [I-293, N-[2-chloro-4-(trifluoromethyl)phenyl]-2-{6-ethyl-7-[(1S,6S)-5-(5-hydroxy-6-methylpyrimidine-4-carbonyl)-2,5-diazabicyclo[4.2.0]octan-2-yl]-2-[(2-hydroxycyclobutyl)(methyl)amino]-8-oxo-5H,8H-pyrido[2,3-b]pyrazin-5-yl}acetamide]
5 | 0.005 to 0.05 | < 0.5 | CCc1c(N2CCN(C(=O)c3ncnc(C)c3O)[C@H]3CC[C@@H]32)c(=O)c2nc(N(C)[C@H]3CC[C@@H](O)C3)cnc2n1CC(=O)Nc1ccc(C(F)(F)F)cc1Cl [I-302, N-[2-chloro-4-(trifluoromethyl)phenyl]-2-{6-ethyl-7-[(1S,6S)-5-(5-hydroxy-6-methylpyrimidine-4-carbonyl)-2,5-diazabicyclo[4.2.0]octan-2-yl]-2-{[(1S,3R)-3-hydroxycyclopentyl](methyl)amino}-8-oxo-5H,8H-pyrido[2,3-b]pyrazin-5-yl}acetamide]
